Experiment: Radiochemical purity: non-complexed ^68Ga species by ITLC
Assay type: physicochemical
Experimental: Radiochemical Purity: Non-Complexed ^68Ga Species by ITLC
Radical Scavenger to be used for the improvement of the radiochemical stability of ^68Ga-PSMA-11, tests were performed according to a varied approach in order to consider all the parameters that may affect the radiochemical purity of the product (activity, pH, volume, amount of Gentisic Acid).
Stability tests were performed on the freeze dried product containing the final formulation. […] Kits manufactured with the final formulation, indeed, were stored at different stability conditions (2-8° C.; 25° C. and 40° C.) and were tested at different time points for API-assay, Radiochemical Purity and Radiochemical Stability of the radiolabelled product. […]

Measured: [^68Ga] Not Complexed Species, iTLC

^68Ga-PSMA-11 [[^68Ga] Gallium PSMA-11]
0.23%: t0 h, Gentisic Acid 200 μg, IRE 17.85 mCi, 1 mL, pH 5.22
0.00%: t0 h, Gentisic Acid 0 μg, IRE 17.19 mCi, 1 mL, pH 5.24 | t0 h, Gentisic Acid 200 μg, IRE 18.07 mCi, 1 mL, pH 5.25 | t0 h, Gentisic Acid 200 μg, ITG 35.92 mCi, 4 mL, pH 4.83 | t0 h, Gentisic Acid 400 μg, IRE 17.44 mCi, 1 mL, pH 5.13 | t0 h, Gentisic Acid 400 μg, IRE 17.79 mCi, 1 mL, pH 5.11 | t0 h, Gentisic Acid 400 μg, ITG 16.9 mCi, 4 mL, pH 4.85 | t0 h, Gentisic Acid 400 μg, ITG 31.97 mCi, 4 mL, pH 4.81 | t0 h, Gentisic Acid 1000 μg, E&Z 15.65 mCi, 5 mL, pH 3.75 | t0 h, Gentisic Acid 1000 μg, IRE 17.1 mCi, 1 mL, pH 5.08 | t0 h, Gentisic Acid 1000 μg, ITG 30.9 mCi, 4 mL, pH 4.87 | t0 h, final formulation kit at Release, E&Z 15.65 mCi, 5 mL, pH 3.75 | t0 h, final formulation kit at Release, IRE 32.27 mCi, 1 mL, pH 4.95 | t0 h, final formulation kit at Release, IRE 32.95 mCi, 1 mL, pH 5.07 | t0 h, final formulation kit at Release, ITG 29.74 mCi, 4 mL, pH 4.67 | t0 h, final formulation kit at Release, ITG 30.90 mCi, 4 mL, pH 4.67 | t0 h, kit stored 3 months at 2-8° C., IRE 25.76 mCi, 1 mL, pH 5.29 | t0 h, kit stored 3 months at 25° C., IRE 24.56 mCi, 1 mL, pH 5.16 | t0 h, kit stored 3 months at 40° C., IRE 24.86 mCi, 1 mL, pH 5.23 | t0 h, kit stored 6 months at 2-8° C., IRE 19.90 mCi, 1 mL, pH 5.13 | t0 h, kit stored 6 months at 25° C., IRE 18.88 mCi, 1 mL, pH 5.09 | t0 h, kit stored 6 months at 40° C., IRE 19.34 mCi, 1 mL, pH 5.15 | t4 h, Gentisic Acid 0 μg, IRE 17.19 mCi, 1 mL, pH 5.24 | t4 h, Gentisic Acid 200 μg, IRE 17.85 mCi, 1 mL, pH 5.22 | t4 h, Gentisic Acid 200 μg, IRE 18.07 mCi, 1 mL, pH 5.25 | t4 h, Gentisic Acid 200 μg, ITG 35.92 mCi, 4 mL, pH 4.83 | t4 h, Gentisic Acid 400 μg, IRE 17.44 mCi, 1 mL, pH 5.13 | t4 h, Gentisic Acid 400 μg, IRE 17.79 mCi, 1 mL, pH 5.11 | t4 h, Gentisic Acid 400 μg, ITG 16.9 mCi, 4 mL, pH 4.85 | t4 h, Gentisic Acid 400 μg, ITG 31.97 mCi, 4 mL, pH 4.81 | t4 h, Gentisic Acid 1000 μg, E&Z 15.65 mCi, 5 mL, pH 3.75 | t4 h, Gentisic Acid 1000 μg, IRE 17.1 mCi, 1 mL, pH 5.08 | t4 h, Gentisic Acid 1000 μg, ITG 30.9 mCi, 4 mL, pH 4.87 | t4 h, final formulation kit at Release, E&Z 15.65 mCi, 5 mL, pH 3.75 | t4 h, final formulation kit at Release, E&Z 16.80 mCi, 5 mL, pH 3.75 | t4 h, final formulation kit at Release, IRE 32.27 mCi, 1 mL, pH 4.95 | t4 h, final formulation kit at Release, IRE 32.95 mCi, 1 mL, pH 5.07 | t4 h, final formulation kit at Release, ITG 29.74 mCi, 4 mL, pH 4.67 | t4 h, final formulation kit at Release, ITG 30.90 mCi, 4 mL, pH 4.67 | t4 h, kit stored 3 months at 2-8° C., IRE 25.76 mCi, 1 mL, pH 5.29 | t4 h, kit stored 3 months at 25° C., IRE 24.56 mCi, 1 mL, pH 5.16 | t4 h, kit stored 3 months at 40° C., IRE 24.86 mCi, 1 mL, pH 5.23 | t4 h, kit stored 6 months at 2-8° C., IRE 19.90 mCi, 1 mL, pH 5.13 | t4 h, kit stored 6 months at 25° C., IRE 18.88 mCi, 1 mL, pH 5.09 | t4 h, kit stored 6 months at 40° C., IRE 19.34 mCi, 1 mL, pH 5.15
0.51%: t0 h, final formulation kit at Release, E&Z 16.80 mCi, 5 mL, pH 3.75

Source: patent publication US20230165980A1, “METHODS FOR RADIOLABELING PSMA BINDING LIGANDS AND THEIR KITS” (Novartis AG, priority 2020, published 2023)
